{"source": "patent US10981858B2", "about": "“Dendrimer and formulations thereof” (Priostar Pty Ltd, priority 2015, dated 2021)", "assay_type_in_all_cases": "physicochemical", "key": {"[1]": {"assay": "Tebuconazole 600 SC hard water testing: suspensibility, column thinning, sedimentation", "settings": "2 ml Tebuconazole 600 SC, dendrimer 0.7%, in 98 ml 342 ppm hard water, 30° C., 24 hours", "procedure": "(§1) Formulations were prepared by mixing water, surfactant, dispersing agent, wetting agent and antifoam together then gradually adding active. High shear mix for 20-30 minutes to disperse formulation ingredients in water before adding the active and mixing until homogeneous. The mixture was milled on a Dyno bead mill (1 m/s) with 0.4-0.6 mm beads at max. 40° C. until particle size was <4 um. Dendrimer compound (in DEG) was added and stirred for 20 minutes. Thickener and antimicrobial was then added and stirred for 20 minutes. Formulations were deaerated by sonication.\n98 ml of 342 ppm hard water (prepared as per CIPAC method MT18) was heated to 30° C. before adding 2 ml. of Tebuconazole 600 SC formulation. Temperature was maintained at 30° C. for 24 hours and formulation characteristics were studied for suspension stability, wetting, column thinning/separation and sedimentation."}, "[2]": {"assay": "Solubilization of Methylated seed oil (MSO) in aqueous LA-9 solution", "settings": "50 g, until hazy", "procedure": "10% aqueous solution of Ethoxylated Lauryl alcohol-9 mole (water soluble surfactant) was prepared in Deionized water (5 g in 45 ml). Dendrimer compounds 1 and 4 were prepared 70:30 w/w in Diethylene glycol (DEG). The 10% Ethoxylated Lauryl alcohol-9 M (LA-9) solution was combined with dendrimer DEG solution at 80:20 and 60:40 w/w (total weight of 50 g).\nMethylated seed oil (MSO) (STEPOSOL-ROE-W, canola oil methyl ester, Stepan) was added dropwise under stirring to the 10% LA-9 solution (with or without dendimers), until the solution became hazy. Weight of MSO added was recorded."}, "[3]": {"assay": "Dynamic viscosity of aqueous dendrimer solution (Brookfield)", "settings": "aqueous solution 7% dendrimer and 3% DEG, ambient temperature, spindle no. 63 at 50 rpm", "procedure": "50 g aqueous solution of dendrimer (7% dendrimer and 3% DEG) was prepared in deionized water in a beaker, and subjected to dynamic viscosity measurement using Brookfield viscometer at ambient temperature. Viscosity studies were conducted using spindle no. 63 at 50 rpm. It was observed that viscosity of Compound-1 solution was 1.8 cps and Compound-4 solution was 0.6 cps."}, "[4]": {"assay": "Tebuconazole 600 SC wetting study in hard water", "settings": "one drop Tebuconazole 600 SC, dendrimer 0.7%, in 342 ppm hard water at 30° C.", "procedure": "as §1\nWetting studies were conducted by placing one drop of Tebuconazole 600 SC formulation in 342 ppm hard water at 30° C. and recording the time when all the formulation particles were wet and dispersed in water."}, "[5]": {"assay": "Solubilization of water insoluble surfactant Ethoxylated Lauryl alcohol-3 M in LA-9 solution", "settings": "50 g, until hazy", "procedure": "5% w/w aqueous solution of Ethoxylated Lauryl alcohol-9 mole (water soluble surfactant) was prepared in Deionized water (2.5 g in 47.5 ml). Dendrimer compounds 1 and 4 were diluted 70:30 w/w in Diethylene glycol. The 5% Ethoxylated Lauryl alcohol-9 M (LA-9) solution was combined with dendrimer DEG solution at 90:10, 80:20 and 70:30 w/w (total weight 50 g).\nEthoxylated lauryl alcohol-3 mole (water insoluble surfactant) was added dropwise, while stirring, to the 50 g LA-9 solution (with or without dendrimer), until it became hazy. The weight of Ethoxylated lauryl alcohol-3 M added was recorded."}, "[6]": {"assay": "2,4-D/dendrimer hard water testing (clarity, sedimentation)", "settings": "30° C.; for Appearance at Addition / Appearance/Sedimentation After 24 Hrs.: 2,4-D Amine in 342 ppm hard water; for Appearance of 2,4-D solutions in hard water: all concentrations tested (from 1.4 to 10%), 342 ppm hard water, 24 hours", "procedure": "342 ppm hard water was prepared as per CIPAC method MT18. The hard water was heated to 30° C. […]"}, "[7]": {"assay": "Tebuconazole 600 SC formulation viscosity (Table 8)", "settings": "dendrimer 0.7%", "procedure": "as §1"}, "Cloud point studies": {"assay": "Cloud point studies", "settings": "1 gm. dendrimer solution (70:30 w/w dendrimer:Diethylene Glycol) in 99 gm. of 10% NaOH solution", "procedure": "1 gm. of dendrimer solution (70:30 w/w dendrimer [Compound 1 or Compound 4]:Diethylene Glycol) was dissolved in 99 gm. of 10% NaOH solution in Deionized water and heated until hazy. Temperature of the solution was measured using calibrated thermometer."}, "[8]": {"assay": "Additional tebuconazole formulations: suspension stability and viscosity", "settings": "additional tebuconazole formulation, 0.8% additive", "text": "Additional formulations were developed, and formulation characteristics were studied for suspension stability, and viscosity."}, "[9]": {"assay": "2,4-D/dendrimer formulation stability study (crystallisation at 0° C.)", "settings": "for Crystallisation After 7 Days at 0° C. With Seeding: 2,4-D Amine 625 g/l seeded with 2,4-D Amine salt; for Crystallisation After 7 Days at 0° C.: without seeding", "procedure": "20 ml of 2,4-D Amine(2,4-D 625 g/l market sample, Rygel, Adama Australia) was transferred to 25 ml clear vials and dendrimer added (with or without 30% Dithethylene Glycol). Caps were tightened to ensure no moisture entered the vials. Formulations were placed in a freezer at 0° C. […] In a related experiment, formulations were prepared with seeding with 2,4-D Amine salt (Shanghai Biochemical Sci. Ltd., purity 98 in order to hasten rate of crystallisation. The results are provided in Table 2."}, "[10]": {"assay": "Water value of dendrimers with solvent (Solvesso 200)", "settings": "50 g aqueous solution, 7% dendrimer and 3% DEG; until hazy", "procedure": "50 g Aqueous solution of Dendrimer were prepared containing 7% dendrimer and 3% Diethylene glycol (DEG) by weight. Solvesso 200 (C10-13 aromatic hydrocarbon solvent) was added dropwise under stirring until the solution became hazy. Weight of Solvesso added was recorded."}, "[11]": {"settings": "2,4-D Amine 625 g/l, dendrimer 2%"}, "[12]": {"settings": "2,4-D Amine 625 g/l, dendrimer 5%"}, "[13]": {"settings": "2,4-D Amine 625 g/l, dendrimer 10%"}}, "note": "Entries after “also recorded” stand apart in the source; their conditions may differ."}
{"compound": "CCC(COCC(O)CN(CCO)CCO)(COCC(O)CN(CCO)CCO)COCC(O)CN(CCO)CCO", "note": "(stereo not shown) [Compound 1, 9-((3-(bis(2-hydroxyethyl)amino)-2-hydroxypropoxy)methyl)-9-ethyl-3,15-bis(2-hydroxyethyl)-7,11-dioxa-3,15-diazaheptadecane-1,5,13,17-tetraol, reference compound]", "values": [{"measurement": "Suspensibility: Sediment", "setting": "[1]", "value": 0.5, "unit": "mL⁻¹"}, {"measurement": "Suspensibility: nature of sediment", "setting": "[1]", "value": "Compact"}, {"measurement": "Suspensibility: Column Thinning", "setting": "[1]; top thinning", "value": 10, "unit": "ml. Top"}, {"measurement": "Quantity MSO added to 10% LA-9 solution", "setting": "[2]; ratio LA-9 solution:dendrimer/DEG solution 60:40 (w/w), 28% dendrimer (w/w)", "value": 0.56, "unit": "g"}, {"measurement": "Quantity MSO added to 10% LA-9 solution", "setting": "[2]; ratio LA-9 solution:dendrimer/DEG solution 80:20 (w/w), 14% dendrimer (w/w)", "value": 0.54, "unit": "g"}, {"measurement": "Dynamic viscosity", "setting": "[3]", "value": 1.8, "unit": "cps"}, {"measurement": "Wetting", "setting": "[4]", "value": 33.3, "unit": "s"}, {"measurement": "Quantity LA-3 added to LA-9 solution", "setting": "[5]; ratio 5% LA-9 solution:dendrimer/DEG solution 70:30 (w/w), 21% dendrimer (w/w)", "value": 1.96, "unit": "g"}, {"measurement": "Quantity LA-3 added to LA-9 solution", "setting": "[5]; ratio 5% LA-9 solution:dendrimer/DEG solution 80:20 (w/w), 14% dendrimer (w/w)", "value": 2.00, "unit": "g"}, {"measurement": "Quantity LA-3 added to LA-9 solution", "setting": "[5]; ratio 5% LA-9 solution:dendrimer/DEG solution 90:10 (w/w), 7% dendrimer (w/w)", "value": 1.83, "unit": "g"}, {"measurement": "Appearance at Addition", "setting": "[6]; dendrimer 1.4% (w/w), 0.6% DEG", "value": "Clear"}, {"measurement": "Appearance/Sedimentation After 24 Hrs.", "setting": "[6]; dendrimer 1.4% (w/w), 0.6% DEG", "value": "Hazy with sediment"}, {"measurement": "Appearance at Addition", "setting": "[6]; dendrimer 2% (w/w)", "value": "Clear"}, {"measurement": "Appearance/Sedimentation After 24 Hrs.", "setting": "[6]; dendrimer 2% (w/w)", "value": "Hazy with sediment"}, {"measurement": "Appearance at Addition", "setting": "[6]; dendrimer 3.5% (w/w), 1.5% DEG", "value": "Clear"}, {"measurement": "Appearance/Sedimentation After 24 Hrs.", "setting": "[6]; dendrimer 3.5% (w/w), 1.5% DEG", "value": "Hazy with sediment"}, {"measurement": "Appearance at Addition", "setting": "[6]; dendrimer 5% (w/w)", "value": "Clear"}, {"measurement": "Appearance/Sedimentation After 24 Hrs.", "setting": "[6]; dendrimer 5% (w/w)", "value": "Hazy with sediment"}, {"measurement": "Appearance at Addition", "setting": "[6]; dendrimer 7% (w/w), 3% DEG", "value": "Clear"}, {"measurement": "Appearance/Sedimentation After 24 Hrs.", "setting": "[6]; dendrimer 7% (w/w), 3% DEG", "value": "Hazy with sediment"}, {"measurement": "Appearance at Addition", "setting": "[6]; dendrimer 10% (w/w)", "value": "Clear"}, {"measurement": "Appearance/Sedimentation After 24 Hrs.", "setting": "[6]; dendrimer 10% (w/w)", "value": "Hazy with sediment"}, {"measurement": "Appearance of 2,4-D solutions in hard water", "setting": "[6]", "value": "hazy solutions with sediment"}, {"measurement": "Viscosity 0 C.", "setting": "[7]; 0 C.", "value": 786}, {"measurement": "Viscosity 54 C.", "setting": "[7]; 54 C.", "value": 743}, {"measurement": "Viscosity RT", "setting": "[7]; RT", "value": 720, "unit": "cP"}, {"measurement": "Cloud point (temperature at which solution turned hazy)", "setting": "Cloud point studies", "value": 65, "unit": "°C"}, {"measurement": "Observation: consistency", "setting": "[8]", "value": "Pseudoplastic liquid,"}, {"measurement": "Observation: sediment at 0 C.", "setting": "[8]; 0 C.", "value": "no sediment at 0 C."}, {"measurement": "Viscosity (cP) 0 C.", "setting": "[8]; 0 C.", "value": 2844, "unit": "cP"}, {"measurement": "Viscosity (cP) RT", "setting": "[8]; RT", "value": 2566, "unit": "cP"}, {"measurement": "Crystallisation After 7 Days at 0° C. With Seeding", "setting": "[9]; dendrimer 1.4%, Diethylene Glycol 0.6%", "value": "Crystallised"}, {"measurement": "Crystallisation After 7 Days at 0° C. With Seeding", "setting": "[9]; dendrimer 3.5%, Diethylene Glycol 1.5%", "value": "Crystallised"}, {"measurement": "Crystallisation After 7 Days at 0° C. With Seeding", "setting": "[9]; dendrimer 7%, Diethylene Glycol 3%", "value": "Crystallised"}, {"measurement": "Crystallisation at 0° C. with seeding", "setting": "[9]; 2,4-D Amine 625 g/l, all the dosages of dendrimer", "value": "crystallised"}, {"measurement": "Crystallisation After 14 Days at 0° C.", "setting": "[9]; 2,4-D Amine 625 g/l, dendrimer 1.4%, Diethylene Glycol 0.6%", "value": "Crystallised"}, {"measurement": "Crystallisation After 14 Days at 0° C.", "setting": "[9]; [11]", "value": "Crystallised"}, {"measurement": "Crystallisation After 14 Days at 0° C.", "setting": "[9]; 2,4-D Amine 625 g/l, dendrimer 3.5%, Diethylene Glycol 1.5%", "value": "Crystallised"}, {"measurement": "Crystallisation After 14 Days at 0° C.", "setting": "[9]; [12]", "value": "Crystallised"}, {"measurement": "Crystallisation After 14 Days at 0° C.", "setting": "[9]; 2,4-D Amine 625 g/l, dendrimer 7%, Diethylene Glycol 3%", "value": "Crystallised"}, {"measurement": "Crystallisation After 14 Days at 0° C.", "setting": "[9]; [13]", "value": "Crystallised"}, {"measurement": "Crystallisation After 7 Days at 0° C.", "setting": "[9]; [11]", "value": "resulted in crystallisation; also recorded: Crystallised"}, {"measurement": "Crystallisation After 7 Days at 0° C.", "setting": "[9]; [12]", "value": "resulted in crystallisation; also recorded: Crystallised"}, {"measurement": "Crystallisation After 7 Days at 0° C.", "setting": "[9]; [13]", "value": "No"}, {"measurement": "Quantity Solvesso 200 added", "setting": "[10]", "value": 1.31, "unit": "g"}]}
{"compound": "CCC(COCC(O)CN(CCOC)CCOC)(COCC(O)CN(CCOC)CCOC)COCC(O)CN(CCOC)CCOC", "note": "(stereo not shown) [Compound 8, 11-((3-(bis(2-methoxyethyl)amino)-2-hydroxypropoxy)methyl)-11-ethyl-5,17-bis(2-methoxyethyl)-2,9,13,20-tetraoxa-5,17-diazahenicosane-7,15-diol]", "values": [{"measurement": "Appearance at Addition", "setting": "[6]; dendrimer 2% (w/w)", "value": "Clear"}, {"measurement": "Appearance/Sedimentation After 24 Hrs.", "setting": "[6]; dendrimer 2% (w/w)", "value": "Hazy with sediment"}, {"measurement": "Appearance at Addition", "setting": "[6]; dendrimer 5% (w/w)", "value": "Clear"}, {"measurement": "Appearance/Sedimentation After 24 Hrs.", "setting": "[6]; dendrimer 5% (w/w)", "value": "Hazy with sediment"}, {"measurement": "Appearance at Addition", "setting": "[6]; dendrimer 10% (w/w)", "value": "Clear"}, {"measurement": "Appearance/Sedimentation After 24 Hrs.", "setting": "[6]; dendrimer 10% (w/w)", "value": "Hazy with sediment"}, {"measurement": "Appearance of 2,4-D solutions in hard water", "setting": "[6]", "value": "hazy solutions with sediment"}]}
